Reference: ChEMBL document CHEMBL5346896, “Development of indolealkylamine derivatives as potential multi-target agents for COVID-19 treatment” (Eur J Med Chem, 2023)

Tested on: SARS-CoV-2
Experiment: Antiviral activity against SARS-CoV-2 spike pseudotyped lentivirus infected in HEK293 cells expressing human ACE2 assessed as inhibition of viral entry into cells at highest concentration preincubated with cell for 1 hrs followed by viral infection for 1 hrs and further replaced with fresh medium and measured 48 hrs post transduction by luminescence based luciferase reporter assay relative to …
Assay type: functional, Severe acute respiratory syndrome coronavirus 2, HEK293T
Conditions: time 2 hrs

Structure (SMILES)	inhibition (INH) [%]
COc1ccc2[nH]c(C(O)c3ccc(Cl)cc3)c(CCNC(C)=O)c2c1 (configuration not stated)	70
COC(=O)NCCc1c(C(O)c2ccccc2)[nH]c2ccc(OC)cc12 (configuration not stated)	70
